Test results reported in patent US8030498B2, “Benzoylpyrazole compounds and herbicides containing them” (Ishihara Sangyo Kaisha, Ltd., priority 2005, dated 2011).

What was measured:
barnyardgrass = assay: Test Example 2: soil application on the day after sowing, growth inhibition rate, barnyardgrass; format: in vivo, Echinochloa crus-galli L.; settings: 250 g/ha active ingredient, observed on 19th to 24th day
In short: (§1)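 Pre-emergence soil treatment: one day post-sowing in upland soil, compound formulations at set active-ingredient rates were applied in 500 L/ha water. Visual rating of growth inhibition (0% untreated-equivalent to 100% complete kill) followed on days 19–24 after application.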

redroot pigweed = assay: Test Example 2: soil application on the day after sowing, growth inhibition rate, redroot pigweed; format: in vivo, Amaranthus retroflexus L.; settings: 250 g/ha active ingredient, observed on 19th to 24th day
In short: as §1

prickly sida = assay: Test Example 2: soil application on the day after sowing, growth inhibition rate, prickly sida; format: in vivo, Sida spinosa L.; settings: 250 g/ha active ingredient, observed on 19th to 24th day
In short: as §1

greenfoxtail = assay: Test Example 2: soil application on the day after sowing, growth inhibition rate, greenfoxtail; format: in vivo, Setaria viridis L.; settings: 250 g/ha active ingredient, observed on 19th to 24th day
In short: as §1

[1] = test system: redroot pigweed (Amaranthus retroflexus L.); assay: Test Example 1: foliar treatment, growth inhibition rate, redroot pigweed; format: in vivo; settings: visually observed 17th to 23rd day after application
In short: (§2)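 Visual scoring of growth inhibition, 0% (untreated) to 100% (complete kill), on days 17–23 following post-emergence spray of formulated compound in water (500 L/ha, 0.1 vol % spreader); plants treated at set leaf stages, e.g. corn 2.0–3.5, wheat 1.7–3.4.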

crabgrass = assay: Test Example 2: soil application on the day after sowing, growth inhibition rate, crabgrass; format: in vivo, Digitaria sanguinalis L.; settings: 250 g/ha active ingredient, observed on 19th to 24th day
In short: as §1

[2] = test system: soybean (Glycine max Merr.); assay: Test Example 1: foliar treatment, growth inhibition rate, soybean; format: in vivo; settings: visually observed 17th to 23rd day after application
In short: as §2

wheat = assay: Test Example 2: soil application on the day after sowing, growth inhibition rate, wheat; format: in vivo, Triticum spp.; settings: 250 g/ha active ingredient, observed on 19th to 24th day
In short: as §1

[3] = test system: crabgrass (Digitaria sanguinalis L.); assay: Test Example 1: foliar treatment, growth inhibition rate, crabgrass; format: in vivo; settings: visually observed 17th to 23rd day after application
In short: as §2

[4] = test system: greenfoxtail (Setaria viridis L.); assay: Test Example 1: foliar treatment, growth inhibition rate, greenfoxtail; format: in vivo; settings: visually observed 17th to 23rd day after application
In short: as §2

corn = assay: Test Example 2: soil application on the day after sowing, growth inhibition rate, corn; format: in vivo, Zea mays L.; settings: 250 g/ha active ingredient, observed on 19th to 24th day
In short: as §1

[5] = test system: prickly sida (Sida spinosa L.); assay: Test Example 1: foliar treatment, growth inhibition rate, prickly sida; format: in vivo; settings: visually observed 17th to 23rd day after application
In short: as §2

velvetleaf = assay: Test Example 2: soil application on the day after sowing, growth inhibition rate, velvetleaf; format: in vivo, Abutilon theophrasti MEDIC.; settings: 250 g/ha active ingredient, observed on 19th to 24th day
In short: as §1

corn (Zea mays L.) = assay: Test Example 1: foliar treatment, growth inhibition rate, corn; format: in vivo; settings: visually observed 17th to 23rd day after application
In short: as §2

rice (Oryza sativa L.) = assay: Test Example 1: foliar treatment, growth inhibition rate, rice; format: in vivo; settings: visually observed 17th to 23rd day after application
In short: as §2

soybean = assay: Test Example 2: soil application on the day after sowing, growth inhibition rate, soybean; format: in vivo, Glycine max Merr.; settings: 250 g/ha active ingredient, observed on 19th to 24th day
In short: as §1

[6] = test system: velvetleaf (Abutilon theophrasti MEDIC.); assay: Test Example 1: foliar treatment, growth inhibition rate, velvetleaf; format: in vivo; settings: visually observed 17th to 23rd day after application
In short: (§3)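 Potted upland soil; compounds as wettable powders or emulsifiable concentrates diluted in water at 500 L/ha plus 0.1 vol % spreader, foliar-sprayed at defined leaf stages (rice 1.0–2.5, wheat 1.7–3.4, corn 2.0–3.5, greenfoxtail 1.0–3.0). Growth inhibition (0–100%) scored visually 17–23 days after application.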

wheat (Triticum spp.) = assay: Test Example 1: foliar treatment, growth inhibition rate, wheat; format: in vivo; settings: visually observed 17th to 23rd day after application
In short: as §2

[7] = test system: barnyardgrass (Echinochloa crus-galli L.); assay: Test Example 1: foliar treatment, growth inhibition rate, barnyardgrass; format: in vivo; settings: visually observed 17th to 23rd day after application
In short: as §3

rice = assay: Test Example 2: soil application on the day after sowing, growth inhibition rate, rice; format: in vivo, Oryza sativa L.; settings: 250 g/ha active ingredient, observed on 19th to 24th day
In short: as §1

SMILES | Growth inhibition rate (%) Barnyardgrass (barnyardgrass) [%] | Growth inhibition rate (%) redroot pigweed (redroot pigweed) [%] | Growth inhibition rate (%) Prickly sida (prickly sida) [%] | Growth inhibition rate (%) Greenfoxtail (greenfoxtail) [%] | Growth inhibition rate (%) redroot pigweed ([1]; 31 g/ha active ingredient) [%] | Growth inhibition rate (%) Crabgrass (crabgrass) [%] | Growth inhibition rate (%) Soybean ([2]; 31 g/ha active ingredient) [%] | Growth inhibition rate (%) Wheat (wheat) [%] | Growth inhibition rate (%) Crabgrass ([3]; 31 g/ha active ingredient) [%] | Growth inhibition rate (%) Greenfoxtail ([4]; 31 g/ha active ingredient) [%] | Growth inhibition rate (%) Corn (corn) [%] | Growth inhibition rate (%) Prickly sida ([5]; 31 g/ha active ingredient) [%] | Growth inhibition rate (%) Velvetleaf (velvetleaf) [%] | Growth inhibition rate (%) Corn (corn (Zea mays L.); 31 g/ha active ingredient) [%] | Growth inhibition rate (%) Rice (rice (Oryza sativa L.); 31 g/ha active ingredient) [%] | Growth inhibition rate (%) Soybean (soybean) [%] | Growth inhibition rate (%) Velvetleaf ([6]; 31 g/ha active ingredient) [%] | Growth inhibition rate (%) Wheat (wheat (Triticum spp.); 31 g/ha active ingredient) [%] | Growth inhibition rate (%) Barnyardgrass ([7]; 31 g/ha active ingredient) [%] | Growth inhibition rate (%) Rice (rice) [%] | also measured
CCSC(=O)Oc1c(C(=O)c2ccc(S(C)(=O)=O)c(COCC(F)(F)F)c2Cl)cnn1C [compound 70] | 70 | 100 | 65 | 50 | 100 | 80 | 80 | 0 | 100 | 100 | 0 | 70 | 70 | 30 | 70 | 0 | 80 | 0 | 100 | 40 | –
CCSC(=O)Oc1c(C(=O)c2ccc(S(C)(=O)=O)c(C(=O)OC)c2Cl)cnn1CC [compound 95] | 100 | 100 | 95 | 100 | 100 | 95 | 95 | 0 | 90 | 100 | 0 | 80 | 80 | 10 | 90 | 0 | 90 | 20 | 100 | 98 | –
CCSC(=O)Oc1c(C(=O)c2ccc(S(C)(=O)=O)c(C#N)c2C)cnn1C [compound 82] | 30 | 50 | 80 | 20 | 60 | 70 | 70 | 0 | 40 | 60 | 0 | 50 | 20 | 0 | 40 | 0 | 70 | 0 | 70 | 10 | –
CCSC(=O)Oc1c(C(=O)c2ccc(S(C)(=O)=O)c(CC#N)c2C)cnn1C [compound 83] | 80 | 90 | 70 | 40 | 80 | 95 | 95 | 0 | 100 | 100 | 0 | 70 | 40 | 0 | 80 | 0 | 95 | 0 | 100 | 50 | –
CCSC(=O)Oc1c(C(=O)c2ccc(S(C)(=O)=O)c(OCCC3OCCO3)c2Cl)cnn1CC [compound 221] | 80 | 100 | 60 | 70 | – | 100 | – | 0 | – | – | 0 | – | 60 | – | – | 0 | – | – | – | 80 | Growth inhibition rate (%) redroot pigweed ([1]; 63 g/ha active ingredient): 80%; Growth inhibition rate (%) Soybean ([2]; 63 g/ha active ingredient): 100%; Growth inhibition rate (%) Crabgrass ([3]; 63 g/ha active ingredient): 50%; Growth inhibition rate (%) Greenfoxtail ([4]; 63 g/ha active ingredient): 50%; Growth inhibition rate (%) Prickly sida ([5]; 63 g/ha active ingredient): 40%; Growth inhibition rate (%) Corn (corn (Zea mays L.); 63 g/ha active ingredient): 0%; Growth inhibition rate (%) Rice (rice (Oryza sativa L.); 63 g/ha active ingredient): 20%; Growth inhibition rate (%) Velvetleaf ([6]; 63 g/ha active ingredient): 60%; Growth inhibition rate (%) Wheat (wheat (Triticum spp.); 63 g/ha active ingredient): 0%; Growth inhibition rate (%) Barnyardgrass ([7]; 63 g/ha active ingredient): 100%
CCC(C)SC(=O)Oc1c(C(=O)c2ccc(S(C)(=O)=O)c(C(=O)OC)c2C)cnn1CC (centres unmarked) [compound 89] | 70 | 90 | 50 | 80 | 90 | 95 | 95 | 0 | 100 | 100 | 0 | 60 | 70 | 20 | 100 | 0 | 100 | 20 | 100 | 80 | –
CCn1ncc(C(=O)c2ccc(S(C)(=O)=O)c(OCCOC)c2C)c1OC(=O)SC(C)C [compound 208] | 100 | 100 | 30 | 100 | 100 | 100 | 100 | 0 | 100 | 100 | 0 | 40 | 50 | 0 | 80 | 0 | 95 | 0 | 95 | 98 | –
